From patent US10160785B2, “Antimicrobial peptides and their use for the treatment of topical infections” (priority 2015, dated 2018)

Columns and labels:
S. aureus (Liberec) = test: Synergistic effect of peptides with antibiotics, FIC index; assay type: cell-based, Staphylococcus aureus; conditions: peptide combined with amoxicillin; FIC <0.5 synergism, 0.5-2 additive, >2 antagonism; averages of three experiments
Procedure: (§1) MICs values of various combinations of two fold serial dilutions of peptides and antibiotics were determined using the same methodology as in the case of antimicrobial activity determination (Example 2). To consider the type of the final effect, FIC indexes (fractional inhibitory concentration) were used and calculated as follows:
(§2) [formula] where MICPC and MICAC are the MICs of the peptide and antibiotic in combination, respectively, and MICP and MICA are the MICs of the peptide and antibiotic tested alone, respectively. FIC<0.5 were considered as synergy, 0.5≤FIC≤2 as addition effect, and FIC>2 as antagonism.

[1] = test system: Candida tropicalis ATCC 750; test: microbe, parasite or virus in culture; assay type: cell-based; conditions: RPMI broth microdilution, 35° C., 48 hours, visual
Procedure: (§3) All yeasts Candida albicans (Olomouc) and ATCC MYA-2876, Candida glabrata ATCC 2001 and DSY 565, Candida dubliniensis ATCC MYA-646, Candida krusei ATCC 6258 and Candida tropicalis ATCC 750 were sub-cultured from sterile vials onto Sabouraud dextrose agar, which was composed of 40 g dextrose (Penta, Czech Republic), 10 g peptone (OXOID, Great Britain) and 17 g agar (OXOID), dissolved in 1 l of distilled water, and cultivated for 24 hours at 35° C.
(§4) All strains were stored in a way that minimizes the possibility of mutation. Candida spp. were grown overnight in liquid YPD medium which is composed of 10 g yeast extract (DIFCO, USA), 20 g peptone (OXOID), and 20 g dextrose (Penta) dissolved in 1 l distilled water. Then the overnight culture was cryogenically preserved by suspending in 50% glycerol solution (1:1) in small vials and stored at −80° C.
(§5) The inoculum was prepared by picking five colonies from 24-hour-old cultures of Candida spp. The colonies were suspended in 1 ml of sterile saline solution and vortexed for 15 seconds. Optical density of the suspension was adjusted spectrophotometrically by adding sterile saline solution to produce optical density of 0.18 at 600 nm. A working suspension was made by a 1:50 dilution followed by a 1:20 dilution of the stock suspension with RPMI 1640 broth medium which was composed of L-glutamine without NaHCO3 (BioSera, France), and with 0.165 mol.l^−1 MOPS (Duchefa, Netherland)—further as RPMI broth medium.
(§6) The broth microdilution test was performed by using sterile, disposable, multi-well microdilution plates (96-well). The peptides in the concentrations 0.625-160 μmol.l^−1 were pipetted into the wells in 100 μl volumes. Each well of the plate was inoculated with 100 μl of the diluted inoculum suspension. Final yeast density in each well was 5×10^2 up to 2.5×10^3 CFU/ml. The microdilution plates were incubated without shaking at 35° C. and observed for the presence or absence of visible growth for 48 hours.
(§7) Drug-free medium without inoculation served as negative control; the growth positive control contained inoculated drug-free medium. Amphotericin B was used as control drug to ensure quality of Candida strains.
(§8) The minimal inhibition concentrations (MICs) were visually determined 48 hours after inoculation. The MIC values were defined as the lowest concentration in which no observable growth is noticeable.
(§9) All yeast isolates were obtained from the Institute of Physiology of the Academy of Sciences of the Czech Republic. Candida albicans (Olomouc) came from the Faculty of Medicine and Dentistry, Palacý University Olomouc.

[2] = test system: Candida dubliniensis ATCC MYA-646; test: microbe, parasite or virus in culture; assay type: cell-based; conditions: RPMI broth microdilution, 35° C., 48 hours, visual
Procedure: as §3, §4, §5, §6, §7, §8, §9

[3] = test system: Candida albicans (Olomouc); test: microbe, parasite or virus in culture; assay type: cell-based; conditions: RPMI broth microdilution, 35° C., 48 hours, visual
Procedure: as §3, §4, §5, §6, §7, §8, §9

Candida glabrata DSY 565 = test: microbe, parasite or virus in culture; assay type: cell-based; conditions: RPMI broth microdilution, 35° C., 48 hours, visual
Procedure: as §3, §4, §5, §6, §7, §8, §9

[4] = test system: Candida glabrata ATCC 2001; test: microbe, parasite or virus in culture; assay type: cell-based; conditions: RPMI broth microdilution, 35° C., 48 hours, visual
Procedure: as §3, §4, §5, §6, §7, §8, §9

[5] = test system: Candida albicans ATCC MYA-2876; test: microbe, parasite or virus in culture; assay type: cell-based; conditions: RPMI broth microdilution, 35° C., 48 hours, visual
Procedure: as §3, §4, §5, §6, §7, §8, §9

Candida krusei ATCC 6258 = test: microbe, parasite or virus in culture; assay type: cell-based; conditions: RPMI broth microdilution, 35° C., 48 hours, visual
Procedure: as §3, §4, §5, §6, §7, §8, §9

in vitro = conditions: human
Method in brief: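 Peptides at 2-200 μmol.l^−1 incubated 1 h at 37 °C with 5% v/v human erythrocyte suspension in physiological solution. Released haemoglobin in supernatant read at 540 nm against buffer (0%) and 0.2% Triton X100 (100%) lysis controls. LC50 is the peptide concentration lysing 50% of cells.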

[6] = test system: Staphylococcus aureus Liberec; conditions: Staphylococcus aureus Liberec clinical isolate; 37° C., 20 h
Procedure: (§10) Gram-positive bacteria (Micrococcus luteus, Bacillus subtilis, Staphylococcus aureus, Staphylococcus epidermidis and Enterococcus faecalis), Gram-negative bacteria (Escherichia coli and Pseudomonas aeruginosa) and the yeast (Candida albicans) were grown to exponential phase and then were diluted with fresh medium. BHI medium (Oxoid, Great Britain) was used for Enterococcus faecalis; YPD medium containing yeast extract peptone and glucose was used for Candida albicans and LB medium (Sigma, Czech Republic) was used for the remaining microorganisms. Then the microorganisms were added to the solutions of the tested antimicrobial peptides in LB medium in multi-well plates. The final peptide concentration it the wells was in the range of 0.1 to 100 μmol.l^−1. That was made by twofold serial dilution from the peptide stock solution (1 mmol.l^−1). The plates were incubated at 37° C. for 20 h while being continuously shaken in a Bioscreen C (Oy Growth Curves AB Ltd., Helsinki, Finland). Absorbance was measured at 540 nm every 15 min. Antimicrobial activity (Table 2) was determined as a quantitative minimum inhibitory concentration (MIC) by observing bacterial growth in the presence of different concentrations of tested peptides. In the experiments ca 10^5 CFU of bacteria or candida per well were routinely used.
(§11) Multiresistant clinical isolates of bacteria were obtained from University Hospital in Motol, Prague, Czech Republic and from Liberec Regional Hospital, Czech Republic. Methicillin resistant Staphylococcus aureus (MRSA) 6271 and Pseudomonas aeruginosa 5482 were from the Czech National Collection of Type Cultures, the National Institute of Public Health, Prague, Czech Republic. Other bacteria were from the Czech Collection of Microorganisms, Brno, Czech Republic. Candida albicans came from the Faculty of Medicine, Palacky University, Olomouc, Czech Republic.

Bacillus subtilis = conditions: Bacillus subtilis; 37° C., 20 h
Procedure: as §10, §11

[7] = test system: Staphylococcus epidermidis Motol; conditions: 37° C., 20 h
Procedure: as §10, §11

[8] = test system: Methicillin resistant Staphylococcus aureus (MRSA) 6271; conditions: 37° C., 20 h
Procedure: as §10, §11

[9] = test system: Enterococcus faecalis Motol; conditions: BHI medium, 37° C., 20 h
Procedure: as §10, §11

[10] = test system: Pseudomonas aeruginosa Liberec; conditions: Pseudomonas aeruginosa Liberec; 37° C., 20 h
Procedure: as §10, §11

Candida albicans Olomouc = conditions: Candida albicans Olomouc; YPD medium; 37° C., 20 h (Example 2)
Procedure: as §10, §11

Micrococcus luteus = conditions: Micrococcus luteus; 37° C., 20 h
Procedure: as §10, §11

Escherichia coli = conditions: 37° C., 20 h
Procedure: as §10, §11

[11] = test system: Staphylococcus aureus Motol; conditions: Staphylococcus aureus Motol clinical isolate; 37° C., 20 h
Procedure: as §10, §11

[12] = test system: Pseudomonas aeruginosa 5482; conditions: 37° C., 20 h
Procedure: as §10, §11

P. aeruginosa (Liberec) = test: Synergistic effect of peptides with antibiotics, FIC index; assay type: cell-based, Pseudomonas aeruginosa; conditions: FIC <0.5 synergism, 0.5-2 additive, >2 antagonism, averages of three experiments; for FIC indexes (fractional inhibitory concentration) Combination with RIF against P. aeruginosa: peptide combined with rifampicin; for FIC indexes (fractional inhibitory concentration) Combination with TET against P. aeruginosa: peptide combined with tetracycline
Procedure: as §1, §2

Substance	Antifungal activity MIC C. tropicalis ATCC 750 [1] [µM]	Antifungal activity MIC C. dubliniensis ATCC MYA-646 [2] [µM]	Antifungal activity MIC C. albicans Olomouc [3] [µM]	Antifungal activity MIC C. glabrata DSY 565 (Candida glabrata DSY 565) [µM]	Antifungal activity MIC C. glabrata ATCC 2001 [4] [µM]	Antifungal activity MIC C. albicans ATCC MYA-2876 [5] [µM]	Antifungal activity MIC C. krusei ATCC 6258 (Candida krusei ATCC 6258) [µM]	HC50 at 1 h (in vitro) [µM]	Antimicrobial activity MIC S. a. Liberec [6] [µM]	Antimicrobial activity MIC B. s. (Bacillus subtilis) [µM]	Antimicrobial activity MIC S. e. Motol [7] [µM]	Antimicrobial activity MIC S. a. 6271 [8] [µM]	Antimicrobial activity MIC E. f. Motol [9] [µM]	Antimicrobial activity MIC P. a. Liberec [10] [µM]	Antimicrobial activity MIC C. a. Olomouc (Candida albicans Olomouc) [µM]	Antimicrobial activity MIC M. l. (Micrococcus luteus) [µM]	Antimicrobial activity MIC E. c. (Escherichia coli) [µM]	Antimicrobial activity MIC S. a. Motol [11] [µM]	Antimicrobial activity MIC P. a. 5482 [12] [µM]	FIC indexes (fractional inhibitory concentration) Combination with RIF against P. aeruginosa (P. aeruginosa (Liberec))	other results
H-GILKSLLKKLKKIIAK-NH2 [X]	1.0	14.0	10.5	71.1	34.0	17.0	5.0	> 400	4.3	1.5	2.2	16.5	76.7	8.9	24.0	1.4	10.0	10.0	5.0	0.333	FIC indexes (fractional inhibitory concentration) Combination with AMX against S. aureus (S. aureus (Liberec)): 0.542; FIC indexes (fractional inhibitory concentration) Combination with TET against P. aeruginosa (P. aeruginosa (Liberec)): 0.521
H-GILSKLLKKLKKIIAK-NH2 [XI]	1.0	10.5	12.0	40.0	26.0	20.0	5.0	> 400	5.9	1.4	1.8	22.7	72.7	8.5	45.3	1.6	17.5	10.0	4.5	0.344	FIC indexes (fractional inhibitory concentration) Combination with AMX against S. aureus (S. aureus (Liberec)): 0.333; FIC indexes (fractional inhibitory concentration) Combination with TET against P. aeruginosa (P. aeruginosa (Liberec)): 0.646
H-GILSSLLKKWKKIIAK-NH2 [XVI]	1.0	40.0	18.0	231.1	40.0	26.0	10.0	> 400	8.8	1.6	2.7	20.0	100.0	7.1	10.5	2.0	7.5	20.3	5.0	0.417	FIC indexes (fractional inhibitory concentration) Combination with TET against P. aeruginosa (P. aeruginosa (Liberec)): 0.583
H-GIMSSLMKKLAAHIKK-NH2 [VIII]	1.1	36.0	17.0	66.7	26.0	20.0	10.0		76.7	2.8	11.3	85.3	>100	46.0	5.0	1.6	20.0	90.0	23.0		
